The text below walks through data of patent US20130095038A1, “PARTICLES, AND PHOTOACOUSTIC IMAGING CONTRAST AGENT AND SLN CONTRAST AGENT INCLUDING THE PARTICLES” (CANON KABUSHIKI KAISHA, priority 2011, published 2013).

For the series, the system named is mouse popliteal lymph nodes. The experiment in a line: Evaluation of accumulation in SLN. The class given is in vivo. On the procedure: Migration to SLN was evaluated using mouse popliteal lymph nodes. A probe was administered to a mouse from the sole of the hindlimb, and accumulation in the popliteal lymph nodes was evaluated as a model of evaluation of accumulation in SLN. Ten microliters of a sample was subcutaneously administered to a mouse from the sole of the hindlimb, and after 24 hours, mouse popliteal lymph nodes were harvested. The harvested mouse popliteal lymph nodes were crushed, and the absorbance of the extract from the crushed lymph nodes was measured. The accumulation rate was calculated based on the following expression:
Accumulation rate=[(absorbance of the extracted mouse popliteal lymph nodes)/(absorbance of the sample in an amount equivalent to the administered amount)]×100.
The accumulation ratios, to SLN, of the photoacoustic imaging contrast agents prepared in Examples B1 to B6 and reagents prepared in Comparative Examples B1 and B2 were calculated according to the above-described evaluation examples for accumulation in SLN. In Table B1, the accumulation ratio means an accumulation rate of each photoacoustic imaging contrast agent or the ICG-albumin complex when the accumulation rate of the ICG aqueous solution used in Comparative Example B1 is assumed as 1.

As for `CC1(C)C(/C=C/C=C/C=C/C=C2/N(CCCCS(=O)(=O)[O-])c3ccc4ccccc4c3C2(C)C)=[N+](CCCCS(=O)(=O)[O-])c2ccc3ccccc3c21.[Na+]` [ICG, indocyanine green], the Accumulation ratio (accumulation rate relative to ICG aqueous solution = 1, 10 μL subcutaneous, sole of hindlimb, 24 hours, absorbance at 790 or 800 nm) is reported as 1. For the same compound, the “Accumulation in SLN (in words)” value (mouse, in vivo) is reported as “low”.
